# Laboratory results from patent publication US10004701B2, “Methods and compositions for treating infection” (UNIVERSITY OF ROCHESTER, priority 2012, dated 2018).
# Counter-ions that a name gives are not always drawn. Like-named read-outs stand apart in the source and are kept apart here.
# How the values were obtained:
# Assay in all cases: AK assay 384-well format, Prestwick library screening
# E. coli = type: cell-based, Escherichia coli; details: 50 μM final drug concentration; for fold induction at 50 µM: Escherichia coli, 3 h
# E. faecium = type: cell-based, Enterococcus faecium; details: 50 μM final drug concentration; for fold induction at 50 µM: Enterococcus faecium, 3 h
# E. cloacae = type: cell-based, Enterobacter cloacae; details: 50 μM final drug concentration; for fold induction at 50 µM: Enterobacter cloacae, 3 h
# [1] = system: A. baumannii strain 98-37-09; type: cell-based, Acinetobacter baumannii; details: 50 μM final drug concentration; for fold induction at 50 µM: Acinetobacter baumannii, 983709, 3 h
# [2] = system: S. aureus strain USA300-0114; type: cell-based, Staphylococcus aureus; details: 50 μM final drug concentration; for fold induction at 50 µM: Staphylococcus aureus, USA300, 3 h
# P. aeruginosa = type: cell-based, Pseudomonas aeruginosa; details: 50 μM final drug concentration; for fold induction at 50 µM: Pseudomonas aeruginosa, 3 h
# K. pneumoniae = type: cell-based, Klebsiella pneumoniae; details: 50 μM final drug concentration; for fold induction at 50 µM: Klebsiella pneumoniae, 3 h
# [3] = planktonic, cutoff for positive-scoring molecules 3-fold increase
# [4] = 384-well format, cutoff for positive-scoring molecules 3-fold increase, read-out: AK-based Prestwick Library Screening Results, E. coli (increase in extracellular AK activity)
# [5] = 384-well format, cutoff for positive-scoring molecules 3-fold increase, read-out: AK-based Prestwick Library Screening Results, E. faecium (increase in extracellular AK activity)
# [6] = 384-well format, cutoff for positive-scoring molecules 3-fold increase, read-out: AK-based Prestwick Library Screening Results, E. cloacae (increase in extracellular AK activity)
# [7] = 384-well format, cutoff for positive-scoring molecules 3-fold increase, read-out: AK-based Prestwick Library Screening Results, A. baumannii (increase in extracellular AK activity)
# [8] = 384-well format, cutoff for positive-scoring molecules 3-fold increase, read-out: AK-based Prestwick Library Screening Results, S. aureus (increase in extracellular AK activity)
# [9] = 384-well format, cutoff for positive-scoring molecules 3-fold increase, read-out: AK-based Prestwick Library Screening Results, P. aeruginosa (increase in extracellular AK activity)
# [10] = 384-well format, cutoff for positive-scoring molecules 3-fold increase, read-out: AK-based Prestwick Library Screening Results, K. pneumoniae (increase in extracellular AK activity)
compound,measurement,setting,value
CN1CCC2=C[C@H](O)[C@H]3OC(=O)c4cc5c(cc4[C@H]3[C@@H]21)OCO5 [Hippeastrine hydrobromide],"AK-based Prestwick Library Screening Results, E. coli (fold increase in extracellular AK activity)",E. coli; [3],0.9
same,"AK-based Prestwick Library Screening Results, E. faecium (fold increase in extracellular AK activity)",E. faecium; [3],0.9
same,"AK-based Prestwick Library Screening Results, E. cloacae (fold increase in extracellular AK activity)",E. cloacae; [3],1.4
same,"AK-based Prestwick Library Screening Results, A. baumannii (fold increase in extracellular AK activity)",[1]; [3],0.8
same,"AK-based Prestwick Library Screening Results, S. aureus (fold increase in extracellular AK activity)",[2]; [3],0.7
same,"AK-based Prestwick Library Screening Results, P. aeruginosa (fold increase in extracellular AK activity)",P. aeruginosa; [3],0.9
same,"AK-based Prestwick Library Screening Results, K. pneumoniae (fold increase in extracellular AK activity)",K. pneumoniae; [3],0.6
CN1CCCN(C(c2ccccc2)c2ccc(Cl)cc2)CC1 (stereo not drawn) [Homochlorcyclizine dihydrochloride],fold induction at 50 µM,"E. coli; planktonic E. coli, 384-well, […], read-out: AK-based Prestwick Library Screening Results: E. coli (increase in extracellular AK activity)",1.5
same,fold induction at 50 µM,"E. faecium; planktonic E. faecium, 384-well, […], read-out: AK-based Prestwick Library Screening Results: E. faecium (increase in extracellular AK activity)",1.2
same,fold induction at 50 µM,"E. cloacae; planktonic E. cloacae, 384-well, […], read-out: AK-based Prestwick Library Screening Results: E. cloacae (increase in extracellular AK activity)",1.8
same,fold induction at 50 µM,"[1]; planktonic A. baumannii, 384-well, […], read-out: AK-based Prestwick Library Screening Results: A. baumannii (increase in extracellular AK activity)",1.2
same,fold induction at 50 µM,"[2]; planktonic S. aureus, 384-well, […], read-out: AK-based Prestwick Library Screening Results: S. aureus (increase in extracellular AK activity)",1
same,fold induction at 50 µM,"P. aeruginosa; planktonic P. aeruginosa, 384-well, […], read-out: AK-based Prestwick Library Screening Results: P. aeruginosa (increase in extracellular AK activity)",1.2
same,fold induction at 50 µM,"K. pneumoniae; planktonic K. pneumoniae, 384-well, […], read-out: AK-based Prestwick Library Screening Results: K. pneumoniae (increase in extracellular AK activity)",1.1
CC1CC(OC(=O)c2ccccc2O)CC(C)(C)C1 (stereo not drawn) [Homosalate],fold induction at 50 µM,"E. coli; planktonic E. coli, positive cutoff 3-fold increase, read-out: AK-based Prestwick library screening result, E. coli (fold increase in extracellular AK activity)",1.3
same,fold induction at 50 µM,"E. faecium; planktonic E. faecium, positive cutoff 3-fold increase, read-out: AK-based Prestwick library screening result, E. faecium (fold increase in extracellular AK activity)",1.1
same,fold induction at 50 µM,"E. cloacae; planktonic E. cloacae, positive cutoff 3-fold increase, read-out: AK-based Prestwick library screening result, E. cloacae (fold increase in extracellular AK activity)",1.5
same,fold induction at 50 µM,"[1]; planktonic A. baumannii, positive cutoff 3-fold increase, read-out: AK-based Prestwick library screening result, A. baumannii (fold increase in extracellular AK activity)",1.8
same,fold induction at 50 µM,"[2]; planktonic S. aureus, positive cutoff 3-fold increase, read-out: AK-based Prestwick library screening result, S. aureus (fold increase in extracellular AK activity)",1.2
same,fold induction at 50 µM,"P. aeruginosa; planktonic P. aeruginosa, positive cutoff 3-fold increase, read-out: AK-based Prestwick library screening result, P. aeruginosa (fold increase in extracellular AK activity)",1.1
same,fold induction at 50 µM,"K. pneumoniae; planktonic K. pneumoniae, positive cutoff 3-fold increase, read-out: AK-based Prestwick library screening result, K. pneumoniae (fold increase in extracellular AK activity)",1.1
CCN(CC)CCNc1ccc(CO)c2sc3ccccc3c(=O)c12 [Hycanthone],fold induction at 50 µM,"E. coli; planktonic E. coli, cutoff for positive-scoring molecules 3-fold increase, read-out: AK-based Prestwick Library Screening Results, E. coli (increase in extracellular AK activity)",0.9
same,fold induction at 50 µM,"E. faecium; planktonic E. faecium, cutoff for positive-scoring molecules 3-fold increase, read-out: AK-based Prestwick Library Screening Results, E. faecium (increase in extracellular AK activity)",1.2
same,fold induction at 50 µM,"E. cloacae; planktonic E. cloacae, cutoff for positive-scoring molecules 3-fold increase, read-out: AK-based Prestwick Library Screening Results, E. cloacae (increase in extracellular AK activity)",1.1
same,fold induction at 50 µM,"[1]; planktonic A. baumannii, cutoff for positive-scoring molecules 3-fold increase, read-out: AK-based Prestwick Library Screening Results, A. baumannii (increase in extracellular AK activity)",0.8
same,fold induction at 50 µM,"[2]; planktonic S. aureus, cutoff for positive-scoring molecules 3-fold increase, read-out: AK-based Prestwick Library Screening Results, S. aureus (increase in extracellular AK activity)",0.8
same,fold induction at 50 µM,"P. aeruginosa; planktonic P. aeruginosa, cutoff for positive-scoring molecules 3-fold increase, read-out: AK-based Prestwick Library Screening Results, P. aeruginosa (increase in extracellular AK activity)",0.8
same,fold induction at 50 µM,"K. pneumoniae; planktonic K. pneumoniae, cutoff for positive-scoring molecules 3-fold increase, read-out: AK-based Prestwick Library Screening Results, K. pneumoniae (increase in extracellular AK activity)",0.7
COc1ccc2c(c1OC)C(=O)O[C@@H]2[C@H]1c2cc3c(cc2CCN1C)OCO3 [Hydrastine hydrochloride],fold induction at 50 µM,"E. coli; planktonic E. coli, […], read-out: AK-based Prestwick Library Screening Results, E. coli (increase in extracellular AK activity)",0.9
same,fold induction at 50 µM,"E. faecium; planktonic E. faecium, […], read-out: AK-based Prestwick Library Screening Results, E. faecium (increase in extracellular AK activity)",1
same,fold induction at 50 µM,"E. cloacae; planktonic E. cloacae, […], read-out: AK-based Prestwick Library Screening Results, E. cloacae (increase in extracellular AK activity)",0.9
same,fold induction at 50 µM,"[1]; planktonic A. baumannii, […], read-out: AK-based Prestwick Library Screening Results, A. baumannii (increase in extracellular AK activity)",1
same,fold induction at 50 µM,"[2]; planktonic S. aureus, […], read-out: AK-based Prestwick Library Screening Results, S. aureus (increase in extracellular AK activity)",0.6
same,fold induction at 50 µM,"P. aeruginosa; planktonic P. aeruginosa, […], read-out: AK-based Prestwick Library Screening Results, P. aeruginosa (increase in extracellular AK activity)",0.9
same,fold induction at 50 µM,"K. pneumoniae; planktonic K. pneumoniae, […], read-out: AK-based Prestwick Library Screening Results, K. pneumoniae (increase in extracellular AK activity)",0.8
CN1CCc2cc3c(cc2C1O)OCO3 (stereo not drawn) [Hydrastinine hydrochloride],fold induction at 50 µM,E. coli; [4],1
same,fold induction at 50 µM,E. faecium; [5],0.9
same,fold induction at 50 µM,E. cloacae; [6],1.2
same,fold induction at 50 µM,[1]; [7],0.9
same,fold induction at 50 µM,[2]; [8],0.7
same,fold induction at 50 µM,P. aeruginosa; [9],0.9
same,fold induction at 50 µM,K. pneumoniae; [10],0.8
NS(=O)(=O)c1cc2c(cc1Cl)NCNS2(=O)=O [Hydrochlorothiazide],fold induction at 50 µM,E. coli; [4],0.5
same,fold induction at 50 µM,E. faecium; [5],1.1
same,fold induction at 50 µM,E. cloacae; [6],0.4
same,fold induction at 50 µM,[1]; [7],0.5
same,fold induction at 50 µM,[2]; [8],0.5
same,fold induction at 50 µM,P. aeruginosa; [9],0.5
same,fold induction at 50 µM,K. pneumoniae; [10],0.6
C[C@]12CCC(=O)C=C1CC[C@@H]1[C@@H]2[C@@H](O)C[C@@]2(C)[C@H]1CC[C@]2(O)C(=O)CO [Hydrocortisone base],"AK-based Prestwick Library Screening Results, E. coli (increase in extracellular AK activity)","E. coli; planktonic E. coli, cutoff for positive-scoring molecules 3-fold increase",1.1
same,"AK-based Prestwick Library Screening Results, E. faecium (increase in extracellular AK activity)","E. faecium; planktonic E. faecium, cutoff for positive-scoring molecules 3-fold increase",1.0
same,"AK-based Prestwick Library Screening Results, E. cloacae (increase in extracellular AK activity)","E. cloacae; planktonic E. cloacae, cutoff for positive-scoring molecules 3-fold increase",1.4
same,"AK-based Prestwick Library Screening Results, A. baumannii (increase in extracellular AK activity)","[1]; planktonic A. baumannii, cutoff for positive-scoring molecules 3-fold increase",1.3
same,"AK-based Prestwick Library Screening Results, S. aureus (increase in extracellular AK activity)","[2]; planktonic S. aureus, cutoff for positive-scoring molecules 3-fold increase",1.3
same,"AK-based Prestwick Library Screening Results, P. aeruginosa (increase in extracellular AK activity)","P. aeruginosa; planktonic P. aeruginosa, cutoff for positive-scoring molecules 3-fold increase",1.1
same,"AK-based Prestwick Library Screening Results, K. pneumoniae (increase in extracellular AK activity)","K. pneumoniae; planktonic K. pneumoniae, cutoff for positive-scoring molecules 3-fold increase",0.9
COc1c2c(cc3c1OCO3)CCN(C)C2 [Hydrocotarnine hydrobromide],fold induction at 50 µM,"E. coli; planktonic, […], read-out: AK-based Prestwick Library Screening Results, E. coli (fold increase in extracellular AK activity)",1.2
same,fold induction at 50 µM,"E. faecium; planktonic, cutoff for positive 3-fold increase, read-out: AK-based Prestwick Library Screening Results, E. faecium (fold increase in extracellular AK activity)",1
same,fold induction at 50 µM,"E. cloacae; planktonic, cutoff for positive 3-fold increase, read-out: AK-based Prestwick Library Screening Results, E. cloacae (fold increase in extracellular AK activity)",1.4
same,fold induction at 50 µM,"[1]; planktonic, cutoff for positive 3-fold increase, read-out: AK-based Prestwick Library Screening Results, A. baumannii (fold increase in extracellular AK activity)",1.3
same,fold induction at 50 µM,"[2]; planktonic, cutoff for positive 3-fold increase, read-out: AK-based Prestwick Library Screening Results, S. aureus (fold increase in extracellular AK activity)",1
same,fold induction at 50 µM,"P. aeruginosa; planktonic, cutoff for positive 3-fold increase, read-out: AK-based Prestwick Library Screening Results, P. aeruginosa (fold increase in extracellular AK activity)",1.2
same,fold induction at 50 µM,"K. pneumoniae; planktonic, cutoff for positive 3-fold increase, read-out: AK-based Prestwick Library Screening Results, K. pneumoniae (fold increase in extracellular AK activity)",0.9
